The record followed here is US20190194179A1, “ANTIBIOTIC COMPOUNDS” (DISCUVA LTD., priority 2016, published 2019).

Molecules are shown by their SMILES. Where two headings read alike, the source gives them in different places.

Format in all cases: cell-based
One experiment concerns Neisseria gonorrhoeae. The experiment can be described thus: EC50 determination: plate-based broth growth assay (absorbance at 600 nm) of Neisseria gonorrhoeae. Particulars: absorbance 600 nm after 20 hours at 37° C./5% CO2, read-out: IC50 (Inhibitory concentration) against Neisseria gonorrhoeae. In outline:
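Mid-log culture diluted to ~10^5 cells/ml as inoculum and grown 20 hours at 37° C./5% CO2 across a 10-point compound dilution series. Growth read as absorbance at 600 nm; EC50 taken from transformed data as the concentration giving 50% response relative to no-compound controls.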

A further experiment concerns Staphylococcus aureus. As to the kind of experiment: EC50 determination: broth growth assay of Staphylococcus aureus (Isosensitest broth). Particulars: Table 1, panel of bacteria, 37° C., read-out: IC50 concentration against Staphylococcus aureus. How it is done:
(§1) Actively growing Neisseria gonorrhoeae on GC agar (based on; Spence et. al. (2008): Curr. Protoc. Microbiol. 8:4A.1.1-4A.1.26) plates are harvested and transferred to GC broth (based on; Spence et al (2008): Curr. Protoc. Microbiol. 8:4A.1.1-4A.1.26) to generate a liquid stock. This culture is allowed to establish and grow to mid-log phase (at 37° C./5% CO2), finally this culture is diluted (˜10^5 cells/ml) to generate a seed inoculum to establish plate-based broth assays. EC50 values were determined by assaying growth (absorbance read at 600 nm, after 20 hours at 37° C./5% CO2) of Neisseria gonorrhoeae across a 10-point dilution series of the test compound. The EC50 value is determined from transformed data to identify the concentration of compound giving a 50% response relative to control samples (no compound).
(§2) EC50 determination for Staphylococcus aureus and Enterococcus Spp. followed a similar procedure but were conducted using Isosensitest broth (Oxoid) with incubations at 37° C. in atmospheric air. Final absorbance reads were conducted during the late exponential growth phase.

The subject of a further experiment is Enterococcus Spp. The experiment can be described thus: EC50 determination: broth growth assay of Enterococcus Spp. (Isosensitest broth). Particulars: Table 1, panel of bacteria, 37° C. The method, then: as §1, §2
Setting [1] is: Enterococcus faecalis, read-out: IC50 concentration against Entercoccus faecalis.
Setting [2] is: Enterococcus faecium, read-out: IC50 concentration against Enterococcus faecium.

For `FC(F)(F)c1ccc2oc(Nc3nnco3)nc2c1` [Example 67, N-(1,3,4-Oxadiazol-2-yl)-5-(trifluoromethyl)benzo[d]oxazol-2-amine], the IC50 in the experiment with Neisseria gonorrhoeae is at most 100 nM; with Staphylococcus aureus, at most 1 µM; in the experiment on Enterococcus Spp. (setting [1]), at most 10 µM; with Enterococcus Spp. (setting [2]), at most 1 µM.

For the compound `FC(F)(F)c1cc2oc(Nc3nc4cc(Cl)ccc4o3)nc2cn1` [Example 165, N-(5-Chlorobenzo[d]oxazol-2-yl)-6-(trifluoromethyl) oxazolo[4,5-c]pyridin-2-amine], the IC50 with Neisseria gonorrhoeae is at most 1000 nM; in the experiment with Staphylococcus aureus it was at most 10 µM; in the experiment with Enterococcus Spp. (setting [1]), at most 10 µM; in the experiment with Enterococcus Spp. (setting [2]) it was at most 10 µM.

On to `Cc1nnc(Nc2nc3cc(C(F)(F)F)ccc3o2)[nH]1` [Example 117, N-(5-Methyl-4H-1,2,4-triazol-3-yl)-5-(trifluoromethyl)benzo[d]oxazol-2-amine], for which the IC50 is at most 1000 nM in the experiment with Neisseria gonorrhoeae, at most 1 µM with Staphylococcus aureus, at most 10 µM in the experiment with Enterococcus Spp. (setting [1]) and at most 10 µM in the experiment with Enterococcus Spp. (setting [2]).

Turning to `FC(F)(F)c1ccc2oc(Nc3nc4cnccc4o3)nc2c1` [Example 60, N-(5-(triFluoromethyl)benzo[d]oxazol-2-yl)oxazolo[4,5-c]pyridin-2-amine], the IC50 is at most 100 nM with Neisseria gonorrhoeae, at most 10 µM with Staphylococcus aureus, at most 1 µM in the experiment on Enterococcus Spp. (setting [1]) and at most 10 µM with Enterococcus Spp. (setting [2]).

For the compound `FC(F)(F)c1ccc2nc(Nc3nnc(C4CC4)o3)oc2c1` [Example 105, N-(5-Cyclopropyl-1,3,4-oxadiazol-2-yl)-6-(trifluoromethyl)benzo[d]oxazol-2-amine], the IC50 with Neisseria gonorrhoeae is at most 100 nM; in the experiment on Staphylococcus aureus, at most 1 µM; in the experiment on Enterococcus Spp. (setting [1]) it was at most 1 µM; in the experiment on Enterococcus Spp. (setting [2]), at most 1 µM.

Regarding `Clc1ccc2nc(Nc3nc4cnccc4o3)oc2c1` [Example 159, N-(6-Chlorobenzo[d]oxazol-2-yl)oxazolo[4,5-c]pyridin-2-amine], the IC50 with Neisseria gonorrhoeae is at most 100000 nM; with Staphylococcus aureus, at most 100 µM; in the experiment on Enterococcus Spp. (setting [1]), at most 100 µM; in the experiment with Enterococcus Spp. (setting [2]), at most 100 µM.

`FC(F)(F)c1cc2nc(Nc3nnc(CN4CCCC4)o3)oc2cc1Cl` [Example 80, 6-Chloro-N-(5-(pyrrolidin-1-ylmethyl)-1,3,4-oxadiazol-2-yl)-5-(trifluoromethyl)benzo[d]oxazol-2-amine]: the IC50 in the experiment with Neisseria gonorrhoeae was at most 100 nM; with Staphylococcus aureus it was at most 1 µM; in the experiment on Enterococcus Spp. (setting [1]), at most 1 µM; in the experiment on Enterococcus Spp. (setting [2]), at most 10 µM.

Turning to `NC(=O)c1csc(Nc2nc3cccc(Cl)c3o2)n1` [Example 36, 2-((7-Chlorobenzo[d]oxazol-2-yl)amino)thiazole-4-carboxamide], in the experiment with Neisseria gonorrhoeae, the IC50 is at most 1000 nM.

As to `NC(=O)c1csc(Nc2nc3cc(C(F)(F)F)c(Cl)cc3o2)n1` [Example 34, 2-((6-Chloro-5-(trifluoromethyl)benzo[d]oxazol-2-yl)amino)thiazole-4-carboxamide], in the experiment with Neisseria gonorrhoeae, the IC50 is at most 1000 nM.

As for `FC(F)(F)c1ccc2oc(Nc3nc(Cl)cs3)nc2c1` [Example 100, N-(4-Chlorothiazol-2-yl)-5-(trifluoromethyl)benzo[d]oxazol-2-amine], the IC50 in the experiment with Neisseria gonorrhoeae is at most 1000 nM.

For `CCOC(=O)c1noc(Nc2nc3ccc(Cl)cc3o2)n1` [Example 216, Ethyl 5-((6-chlorobenzo[d]oxazol-2-yl)amino)-1,2,4-oxadiazole-3-carboxylate], the IC50 in the experiment on Neisseria gonorrhoeae was at most 1000 nM.

On to `COC1CCN(Cc2nnc(Nc3nc4cc(C(F)(F)F)ccc4o3)o2)C1` (centres unmarked) [Example 75, N-(5-((3-Methoxypyrrolidin-1-yl)methyl)-1,3,4-oxadiazol-2-yl)-5-(trifluoromethyl)benzo[d]oxazol-2-amine], for which, in the experiment on Neisseria gonorrhoeae, the IC50 is at most 1000 nM.

Regarding `FC(F)(F)c1cc2[nH]c(Nc3nc4ccccc4o3)nc2cn1` [Example 170, N-(6-(Trifluoromethyl)-1H-imidazo[4,5-c]pyridin-2-yl)benzo[d]oxazol-2-amine], the IC50 in the experiment on Neisseria gonorrhoeae was at most 1000 nM; in the experiment with Staphylococcus aureus, at most 10 µM; in the experiment on Enterococcus Spp. (setting [1]), at most 10 µM; in the experiment on Enterococcus Spp. (setting [2]), at most 10 µM.

Take `Cc1nnc(Nc2nc3cnc(C(F)(F)F)cc3o2)o1` [Example 53, N-(5-Methyl-1,3,4-oxadiazol-2-yl)-6-(trifluoromethyl)oxazolo[4,5-c]pyridin-2-amine]: the IC50 in the experiment on Neisseria gonorrhoeae is at most 10000 nM.

For the compound `Clc1ccc2nc(Nc3nnco3)oc2c1` [Example 115, 6-Chloro-N-(1,3,4-oxadiazol-2-yl)benzo[d]oxazol-2-amine], in the experiment on Neisseria gonorrhoeae, the IC50 was at most 1000 nM.

With `FC(F)(F)c1cc2nc(Nc3nnc(CN4CCCC4)[nH]3)oc2cc1Cl` [Example 137, 6-Chloro-N-(5-(pyrrolidin-1-ylmethyl)-4H-1,2,4-triazol-3-yl)-5-(trifluoromethyl)benzo[d]oxazol-2-amine], the IC50 with Neisseria gonorrhoeae is at most 100 nM.

As for `FC(F)(F)c1cc2nc(Nc3nnc[nH]3)oc2cc1Cl` [Example 43, 6-Chloro-N-(4H-1,2,4-triazol-3-yl)-5-(trifluoromethyl)benzo[d]oxazol-2-amine], in the experiment with Neisseria gonorrhoeae, the IC50 was at most 100 nM.
